Laboratory results published in patent US8053409B2, “Agent for prophylaxis of reflex sympathetic dystrophy after cerebral apoplexy” (Asahi Kasei Pharma Corporation, priority 2006, dated 2011).

How the values were obtained:
[1] = system: patients with hemiplegia attributed to cerebrovascular disease (stroke); assay: Test of prevention of onset of post-stroke RSD; format: in vivo, human
Description: Test subjects were 33 patients with hemiplegia attributed to cerebrovascular disease (stroke) at Brunnstrom stage III or lower in either the upper limb or a finger on admission. Patients already developing RSD (shoulder-hand syndrome) on admission and patients with pain in the shoulder joint or swollen paralyzed limbs were excluded from the test. […] On the other hand, 21 test subjects were classified into a rehabilitation alone group (control group) and compared with the EL administration group. Physical therapy and therapeutic exercise, occupational therapy, and the management of the paralyzed limbs were performed thoroughly in all the cases. […] EL administration was initiated 11 to 59 days after an attack of stroke (25.8 days on average) and continued until 5 months after the attack of stroke. The same observation period was applied to the control group. The test subjects were diagnosed as developing RSD (shoulder-hand syndrome) if they had diffuse pain not localized to the shoulder joint, edema involving skin color changes, skin temperature abnormalities, and range of motion limitations, and the practice of their rehabilitation was restricted. These criteria agreed to Veldman's diagnostic criteria or diagnostic criteria, for CRPS-type 1 provided by the International Association for the Study of Pain.
Activities of daily living (ADL) were evaluated on the basis of the Barthel Index (BI) and the range of motion (ROM) of shoulder joint. The movable range of shoulder joint (also referred to as “shoulder ROM”) was regarded as restricted (Shoulder-ROM-restrictions were present.) if either abduction or flexion was restricted in measurement. The test subjects were also examined for sensory impairment, aphasia, and unilateral spatial neglect on admission.
Statistical analysis was conducted with unpaired t-test, Fisher's exact test, or Wilcoxon test, and 5% or lower significance level was regarded as being significant.

[2] = system: patients with hemiplegia attributed to cerebrovascular disease (stroke) who developed RSD (shoulder-hand syndrome); assay: Test of treatment of post-stroke RSD; format: in vivo, human; details: therapeutic administration group, at completion of administration
Method: EL was administered after the onset of RSD (shoulder-hand syndrome) in the same use and dose as in Example 1 to 11 patients with hemiplegia attributed to cerebrovascular disease (stroke) at Brunnstrom stage III or lower in either the upper limb or a finger on admission, who developed RSD (shoulder-hand syndrome). These patients were classified into a therapeutic administration group. On the other hand, the EL administration group of Example 1 was compared as a control (preventive administration group) with the therapeutic administration group.

[3] = system: RSD triggered and developed by a trauma or surgical invasion; details: subjects having no anamnesis of RSD, after a trauma or surgical invasion; cited from earlier work
[4] = EL preventive administration group (12 subjects), 20 units intramuscularly once a week, continued until 5 months after stroke
[5] = preventive administration group, at completion of administration

| Compound | Incidence of RSD converted to all patients with hemiplegia attributed to stroke in the facility ([1]; EL administration group, control group approximately 8.7%) | The number of test subjects developing post-stroke RSD: Developed [1, 4] | The number of test subjects developing post-stroke RSD: Not developed [1, 4] | Cases that developed RSD (incidence) ([1]; EL preventive administration group, 1 of the 12 cases, control group 52.4%) | Incidence of RSD when EL administration was initiated within 48 days after stroke ([1]; cases with administration initiated within 48 days after stroke) | Barthel index, Average ± SE [1, 5] | Barthel index, Median [1, 5] | No RSD, the number of persons [1, 5] | Incidence of RSD until discharge from hospital compared with the unadministered patient group ([1]; repetitive administration to hemiplegia patients without RSD on admission) | Barthel index, Average ± SE [2] | Barthel index, Median [2] | No RSD, the number of persons [2] | Preventive effect on the initial onset of RSD [3] |
| --- | --- | --- | --- | --- | --- | --- | --- | --- | --- | --- | --- | --- | --- |
| 1-butyric acid-7-(L-2-aminobutyric acid)-26-L-aspartic acid-27-L-valine-29-L-alanine-calcitonin [elcatonin] | approximately 1.3% | 1 | 11 | 8.3% | 0% | 60.8 ± 9.3 | 72.5 | 11 | suppressed significantly and remarkably | 31.8 ± 7.8 | 25 | 0 | – |
| O=C1O[C@H]([C@@H](O)CO)C(O)=C1O [vitamin C] | – | – | – | – | – | – | – | – | – | – | – | – | preventive effect |
